Measurements as given in patent US20250179078A1, “INHIBITORS OF NLRP3” (PTC THERAPEUTICS, INC., priority 2022, published 2025).

Molecular target: T1, NLRP3 (Homo sapiens, UniProt Q96P20)
T1 construct: host or cells: THP-1 cells differentiated with PMA
Assay: IL-1β Secretion Assay (NLRP3-dependent IL1β secretion in THP1 cells)
Format: cell-based
Details: PMA-differentiated THP-1 cells; compounds incubated 20 h; 2.5 μM Nigericin 3 h; HTRF IL-1β readout; read-out: IC50 IL-1β Inhibition
Method in brief: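 IL-1β in conditioned media, measured by HTRF after 3 h 2.5 μM nigericin stimulation, gave % inhibition fitted logistically for IC50. Before that, PMA-differentiated (100 ng/mL, 24 h) THP-1 cells were preincubated 20 h with 7 compound concentrations (3-fold serial, DMSO 1:200).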

T1 sequence (Q96P20 whole entry): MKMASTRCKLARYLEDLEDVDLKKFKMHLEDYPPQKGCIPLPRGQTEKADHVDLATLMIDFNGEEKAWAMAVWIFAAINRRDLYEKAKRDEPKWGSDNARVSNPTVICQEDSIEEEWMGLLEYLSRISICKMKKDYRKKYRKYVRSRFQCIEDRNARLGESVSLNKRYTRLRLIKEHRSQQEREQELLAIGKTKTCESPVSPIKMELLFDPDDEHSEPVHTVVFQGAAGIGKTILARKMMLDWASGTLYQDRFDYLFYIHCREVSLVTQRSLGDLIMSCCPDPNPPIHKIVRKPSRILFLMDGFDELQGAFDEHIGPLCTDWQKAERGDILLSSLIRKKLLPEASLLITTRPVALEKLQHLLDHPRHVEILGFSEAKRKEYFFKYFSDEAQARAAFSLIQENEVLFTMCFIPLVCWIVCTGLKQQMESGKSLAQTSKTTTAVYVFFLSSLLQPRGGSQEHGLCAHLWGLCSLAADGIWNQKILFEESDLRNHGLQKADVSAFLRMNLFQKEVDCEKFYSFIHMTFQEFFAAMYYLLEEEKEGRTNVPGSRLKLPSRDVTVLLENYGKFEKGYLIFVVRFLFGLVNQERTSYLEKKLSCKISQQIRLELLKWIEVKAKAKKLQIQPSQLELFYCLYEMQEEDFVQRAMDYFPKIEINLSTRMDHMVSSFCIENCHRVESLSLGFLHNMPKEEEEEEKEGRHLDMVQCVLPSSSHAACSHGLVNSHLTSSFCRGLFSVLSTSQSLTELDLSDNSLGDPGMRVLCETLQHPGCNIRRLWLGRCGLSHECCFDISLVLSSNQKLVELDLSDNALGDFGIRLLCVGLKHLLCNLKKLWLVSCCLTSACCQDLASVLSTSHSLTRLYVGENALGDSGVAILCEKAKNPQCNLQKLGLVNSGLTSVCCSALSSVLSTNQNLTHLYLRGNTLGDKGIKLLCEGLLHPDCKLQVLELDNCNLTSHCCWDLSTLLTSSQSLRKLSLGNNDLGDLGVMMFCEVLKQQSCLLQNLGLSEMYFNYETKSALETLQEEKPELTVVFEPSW

SMILES | IC50 [nM]
CC(C)(O)C1CC(Nc2nnc(-c3ccc(C(F)(F)F)cc3CC(F)(F)F)c3cncn23)C1 (stereo not shown) [Compound 339, 2-[3-({1-[2-(2,2,2-trifluoroethyl)-4-(trifluoromethyl)phenyl]imidazo[1,5-d][1,2,4]triazin-4-yl}amino)cyclobutyl]propan-2-ol] | 10 to 100
C[C@]1(CO)C[C@@H](Nc2nnc(-c3ccc(C(F)(F)F)cc3OC(F)(F)F)c3cncn23)C1 [Compound 340, [(1s,3s)-1-methyl-3-({1-[2-(trifluoromethoxy)-4-(trifluoromethyl)phenyl]imidazo[1,5-d][1,2,4]triazin-4-yl}amino)cyclobutyl]methanol] | 1 to 10
COc1ccc(-c2nnc(N[C@H]3C[C@@](C)(CO)C3)n3cncc23)c(CC(F)(F)F)c1 [Compound 341, [(1s,3s)-3-({1-[4-methoxy-2-(2,2,2-trifluoroethyl)phenyl]imidazo[1,5-d][1,2,4]triazin-4-yl}amino)-1-methylcyclobutyl]methanol] | 10 to 100
COc1ccc(-c2nnc(N[C@H]3C[C@@](C)(CO)C3)n3cncc23)c(OC(F)(F)F)c1 [Compound 342, [(1s,3s)-3-({1-[4-methoxy-2-(trifluoromethoxy)phenyl]imidazo[1,5-d][1,2,4]triazin-4-yl}amino)-1-methylcyclobutyl]methanol] | 10 to 100
C[C@]1(CO)C[C@@H](Nc2nnc(-c3ccc(C(F)(F)F)cc3CC(F)(F)F)c3cncn23)C1 [Compound 343, [(1s,3s)-1-methyl-3-({1-[2-(2,2,2-trifluoroethyl)-4-(trifluoromethyl)phenyl]imidazo[1,5-d][1,2,4]triazin-4-yl}amino)cyclobutyl]methanol] | < 1
Cc1ccc(-c2nnc(N[C@H]3C[C@@](C)(O)C3)n3cncc23)c(OC(F)F)c1 [Compound 344, (1s,3s)-3-({1-[2-(difluoromethoxy)-4-methylphenyl]imidazo[1,5-d][1,2,4]triazin-4-yl}amino)-1-methylcyclobutan-1-ol] | 10 to 100
C[C@]1(O)C[C@@H](Nc2nnc(-c3ccc(C4CC4)cc3OC(F)F)c3cncn23)C1 [Compound 345, (1s,3s)-3-({1-[4-cyclopropyl-2-(difluoromethoxy)phenyl]imidazo[1,5-d][1,2,4]triazin-4-yl}amino)-1-methylcyclobutan-1-ol] | 1 to 10
C[C@]1(O)C[C@@H](Nc2nnc(-c3ccc(C4CC4)cc3OC(F)(F)F)c3cncn23)C1 [Compound 346, (1s,3s)-3-({1-[4-cyclopropyl-2-(trifluoromethoxy)phenyl]imidazo[1,5-d][1,2,4]triazin-4-yl}amino)-1-methylcyclobutan-1-ol] | 1 to 10
Cc1ccc(-c2nnc(N[C@H]3C[C@@H](CO)C3)n3cncc23)c(OC(F)(F)F)c1 [Compound 347, [(1s,3s)-3-({1-[4-methyl-2-(trifluoromethoxy)phenyl]imidazo[1,5-d][1,2,4]triazin-4-yl}amino)cyclobutyl]methanol] | 10 to 100
C[C@]1(O)C[C@@H](Nc2nnc(-c3ccc(C4CC4)cc3CC(F)(F)F)c3cncn23)C1 [Compound 348, (1s,3s)-3-({1-[4-cyclopropyl-2-(2,2,2-trifluoroethyl)phenyl]imidazo[1,5-d][1,2,4]triazin-4-yl}amino)-1-methylcyclobutan-1-ol] | < 1
OC[C@H]1C[C@@H](Nc2nnc(-c3ccc(C4CC4)cc3CC(F)(F)F)c3cncn23)C1 [Compound 349, [(1s,3s)-3-({1-[4-cyclopropyl-2-(2,2,2-trifluoroethyl)phenyl]imidazo[1,5-d][1,2,4]triazin-4-yl}amino)cyclobutyl]methanol] | 1 to 10
O=C1NCCC1Nc1nnc(-c2ccc(C3CC3)cc2CC(F)(F)F)c2cncn12 (stereo not shown) [Compound 350, 3-({1-[4-cyclopropyl-2-(2,2,2-trifluoroethyl)phenyl]imidazo[1,5-d][1,2,4]triazin-4-yl}amino)pyrrolidin-2-one] | 1 to 10
O[C@@H]1COCC[C@H]1Nc1nnc(-c2ccc(C3CC3)cc2CC(F)(F)F)c2cncn12 [Compound 351, (3S,4R)-4-({1-[4-cyclopropyl-2-(2,2,2-trifluoroethyl)phenyl]imidazo[1,5-d][1,2,4]triazin-4-yl}amino)oxan-3-ol] | 1 to 10
CN1CCC[C@@H](Nc2nnc(-c3ccc(C4CC4)cc3CC(F)(F)F)c3cncn23)C1 [Compound 352, 1-[4-cyclopropyl-2-(2,2,2-trifluoroethyl)phenyl]-N-[(3R)-1-methylpiperidin-3-yl]imidazo[1,5-d][1,2,4]triazin-4-amine] | 1 to 10
O[C@H]1CCC[C@@H](Nc2nnc(-c3ccc(C4CC4)cc3CC(F)(F)F)c3cncn23)C1 [Compound 353, (1S,3R)-3-({1-[4-cyclopropyl-2-(2,2,2-trifluoroethyl)phenyl]imidazo[1,5-d][1,2,4]triazin-4-yl}amino)cyclohexan-1-ol] | 1 to 10
CC(Nc1nnc(-c2ccc(C3CC3)cc2CC(F)(F)F)c2cncn12)c1cccc(O)c1 (stereo not shown) [Compound 354, 3-[1-({1-[4-cyclopropyl-2-(2,2,2-trifluoroethyl)phenyl]imidazo[1,5-d][1,2,4]triazin-4-yl}amino)ethyl]phenol] | 1 to 10

SMILES | IC50 [nM]
Cc1ccc(-c2nnc(N[C@@H]3CCCN(CCO)C3)n3cncc23)c(OC(F)(F)F)c1 [Compound 355, 2-[(3R)-3-({1-[4-methyl-2-(trifluoromethoxy)phenyl]imidazo[1,5-d][1,2,4]triazin-4-yl}amino)piperidin-1-yl]ethan-1-ol] | 10 to 100
CCN1C[C@H](F)C[C@@H](Nc2nnc(-c3ccc(C(F)(F)F)cc3OC(F)F)c3cc(C)nn23)C1 [Compound 356, 4-[2-(difluoromethoxy)-4-(trifluoromethyl)phenyl]-N-[(3R,5R)-1-ethyl-5-fluoropiperidin-3-yl]-2-methylpyrazolo[1,5-d][1,2,4]triazin-7-amine] | < 1
CCN1CCC[C@@H](Nc2nnc(-c3ccc(Br)cc3OC(F)(F)F)c3cc(C)nn23)C1 [Compound 357, 4-[4-bromo-2-(trifluoromethoxy)phenyl]-N-[(3R)-1-ethylpiperidin-3-yl]-2-methylpyrazolo[1,5-d][1,2,4]triazin-7-amine] | < 1
Cc1cc2c(-c3ccc(Cl)cc3OC(F)F)nnc(N[C@@H]3CCCN(C)C3)n2n1 [Compound 358, 4-[4-chloro-2-(difluoromethoxy)phenyl]-2-methyl-N-[(3R)-1-methylpiperidin-3-yl]pyrazolo[1,5-d][1,2,4]triazin-7-amine] | < 1
Cc1cc2c(-c3ccc(C(F)(F)F)cc3C(F)F)nnc(N[C@@H]3CCCN(C)C3)n2n1 [Compound 359, 4-[2-(difluoromethyl)-4-(trifluoromethyl)phenyl]-2-methyl-N-[(3R)-1-methylpiperidin-3-yl]pyrazolo[1,5-d][1,2,4]triazin-7-amine] | 1 to 10
Cc1cc2c(-c3ccc(C4CC4)cc3OC(F)F)nnc(N[C@@H]3CCCN(C)C3)n2n1 [Compound 360, 4-[4-cyclopropyl-2-(difluoromethoxy)phenyl]-2-methyl-N-[(3R)-1-methylpiperidin-3-yl]pyrazolo[1,5-d][1,2,4]triazin-7-amine] | < 1
Cc1ccc(-c2nnc(N[C@@H]3CCCN(C)C3)n3nc(C)cc23)c(OC(F)F)c1 [Compound 361, 4-[2-(difluoromethoxy)-4-methylphenyl]-2-methyl-N-[(3R)-1-methylpiperidin-3-yl]pyrazolo[1,5-d][1,2,4]triazin-7-amine] | 1 to 10
Cc1cc2c(-c3ccc(Cl)cc3C(F)F)nnc(N[C@@H]3CCCN(C)C3)n2n1 [Compound 362, 4-[4-chloro-2-(difluoromethyl)phenyl]-2-methyl-N-[(3R)-1-methylpiperidin-3-yl]pyrazolo[1,5-d][1,2,4]triazin-7-amine] | 10 to 100
Cc1cc2c(-c3ccc(C4CC4)cc3C(F)F)nnc(N[C@@H]3CCCN(C)C3)n2n1 [Compound 363, 4-[4-cyclopropyl-2-(difluoromethyl)phenyl]-2-methyl-N-[(3R)-1-methylpiperidin-3-yl]pyrazolo[1,5-d][1,2,4]triazin-7-amine] | 1 to 10
Cc1ccc(-c2nnc(N[C@@H]3CCCN(C)C3)n3nc(C)cc23)c(C(F)F)c1 [Compound 364, 4-[2-(difluoromethyl)-4-methylphenyl]-2-methyl-N-[(3R)-1-methylpiperidin-3-yl]pyrazolo[1,5-d][1,2,4]triazin-7-amine] | 10 to 100
CCN1CCC[C@@H](Nc2nnc(-c3ccc(C(F)(F)F)cc3OC(F)(F)F)c3cc(C)nn23)C1 [Compound 365, N-[(3R)-1-ethylpiperidin-3-yl]-2-methyl-4-[2-(trifluoromethoxy)-4-(trifluoromethyl)phenyl]pyrazolo[1,5-d][1,2,4]triazin-7-amine] | 1 to 10
CCN1CCC[C@@H](Nc2nnc(-c3ccc(SC)cc3OC(F)(F)F)c3cc(C)nn23)C1 [Compound 366, N-[(3R)-1-ethylpiperidin-3-yl]-2-methyl-4-[4-(methylsulfanyl)-2-(trifluoromethoxy)phenyl]pyrazolo[1,5-d][1,2,4]triazin-7-amine] | 1 to 10
CCN1CCC[C@@H](Nc2nnc(-c3ccc(C)cc3SC)c3cc(C)nn23)C1 [Compound 367, N-[(3R)-1-ethylpiperidin-3-yl]-2-methyl-4-[4-methyl-2-(methylsulfanyl)phenyl]pyrazolo[1,5-d][1,2,4]triazin-7-amine] | 1 to 10
CCN1CCC[C@@H](Nc2nnc(-c3ccc(C)cc3S(C)(=O)=O)c3cc(C)nn23)C1 [Compound 368, N-[(3R)-1-ethylpiperidin-3-yl]-4-[2-(methanesulfonyl)-4-methylphenyl]-2-methylpyrazolo[1,5-d][1,2,4]triazin-7-amine] | 10 to 100
CCN1CCC[C@@H](Nc2nnc(-c3ccc(S(C)(=O)=O)cc3OC(F)(F)F)c3cc(C)nn23)C1 [Compound 369, N-[(3R)-1-ethylpiperidin-3-yl]-4-[4-(methanesulfonyl)-2-(trifluoromethoxy)phenyl]-2-methylpyrazolo[1,5-d][1,2,4]triazin-7-amine] | 10 to 100
